From patent US20200031920A1, “Combination Therapy for Treating Cancer” (The George Washington University, priority 2017, published 2020)

Legend:
IL-11 = IL-11 secretion by ELISA in cell culture medium; assay type: cell-based, human; settings: SKOV3 cells, various small doses of cisplatin, four days
Method: (§1) FIG. 69 are bar graphs ((A)-(C) and (E)-(F)) and illustrations ((D) and (G)) showing that reactive oxygen species (ROS) induces IL-11 expression. (A) is a bar graph showing quantification of ROS production in SKOV3 and SKOV3 CR cells. Data are represented as means±SD from three independent experiments. **p<0.01. Scale bar, 100 μm. (B) is a bar graph showing quantification of ROS production in SKOV3 CR cells after treatment with the ROS inhibitor YCG063 at 20 μM for 24 hr. Data are represented as means±SD from three independent experiments. ***p<0.001. (C) is a bar graph showing IL-11 levels measured by ELISA in the medium of SKOV3 CR cells treated with YCG063 at 20 μM for 24 hr. Data are represented as mean±SD from three independent experiments performed in triplicate. ***p<0.001. (D) is an illustration showing an immunoblot of phosphorylated JAK2 and STAT5 in SKOV3 CR cells treated with YCG063 (20 μM) for 24 hr. (E) is a bar graph showing quantification of ROS production in SKOV3 cells after treated with the ROS inhibitor YCG063 (20 μM), cisplatin (1 μM), or both for 24 hr. Data are represented as means±SD from three independent experiments. **p<0.01, ***p<0.001, n.s. means not significant by one-way ANOVA. (F) is a bar graph showing IL-11 levels measured by ELISA in SKOV3 cells treated with YCG063 (20 μM), cisplatin (1 μM) or both for 24 hr. Data are represented as mean±SD from three independent experiments performed in triplicate. ***p<0.001 by one-way ANOVA. (G) is an illustration showing an immunoblot of phosphorylated JAK2 and STAT5 in SKOV3 CR cells treated with YCG063 (20 μM), cisplatin (1 μM) or both for 24 hr.
Next, the factor from medium that contributes to cisplatin resistance of SKOV3 CR cells was investigated. […] The cell-free culture medium, mouse serum, and patient serum were analyzed for IL-11 levels using a human IL-11 ELISA kit (R&D Systems) according to the manufacturer's instructions. The absorbance was read at 450 nm using a microplate reader (BioTek). The data were normalized to the cell number. […]

[1] = system: reactive oxygen species (ROS); test: ROS production (CellROX Orange reagent); assay type: cell-based; settings: SKOV3 cells, YCG063 20 μM, cisplatin 1 μM, 24 hr
Method: as §1, with “(D) is an illustration showing an immunoblot of phosphorylated JAK2 and STAT5 in SKOV3 CR cells treated with YCG063 (20 μM) for 24 hr.” left out, “Data are represented as means±SD from three independent experiments. **p<0.01, ***p<0.001, n.s. means not significant by one-way ANOVA.” left out, “Data are represented as mean±SD from three independent experiments performed in triplicate. ***p<0.001 by one-way ANOVA. (G) is an illustration showing an immunoblot of phosphorylated JAK2 and STAT5 in SKOV3 CR cells treated with YCG063 (20 μM), cisplatin (1 μM) or both for 24 hr.” left out
DNA damage induces generation of reactive oxygen species (ROS). […] ROS was detected with a live cell-permeable, fluorophore CellROX Orange reagent (Thermo Fisher Scientific) according to the manufacturer's instructions. […] ROS intensity was analyzed using ImageJ (NIH) software. […]

SKOV3 CR cells [2] = test: combinational high throughput screen with cisplatin; assay type: cell-based; settings: in combination with DMSO, 1 μM cisplatin or 20 μM cisplatin
Excerpt: A combinational HTS using multiple compound libraries including NPC (NIH Pharmaceutical Collection), MIPE (Mechanism interrogation plate), and LOPAC (The Library of Pharmacologically Active Compounds) was used to identify compounds that can overcome cisplatin resistance of SKOV3 CR cells (FIG. 5). The library of pharmacologically active compounds (LOPAC®) of 1280 compounds (1) was purchased from Sigma. The NCGC Pharmaceutical Collection (NPC) of 2816 compounds and mechanism interrogation plate (MIPE) library of 1920 compounds were previously described. Bromberg, J Clin Invest 109: 1139-1142 (2002) and Buchert et al., Oncogene 35: 939-951 (2016). Compounds from all libraries were obtained as powder and dissolved in dimethyl sulfoxide (DMSO) […]. Combinational HTS was performed as previously described. Szasz et al., Oncotarget 7: 49322-49333 (2016). A total of 6,016 compounds were screened. […] In the second screen, these 112 compounds were selected for a dose-response confirmation screen in combination with DMSO, 1 μM cisplatin or 20 μM cisplatin (FIG. 5).

SKOV3 CR cells [3] = test: cell viability / proliferation (SRB) assay, cisplatin resistant SKOV3 CR cells; assay type: cell-based; settings: combination with carboplatin, CI<1 synergism

| Compound | IL-11 secretion (IL-11) | ROS production [1] | sensitization to cisplatin in second (dose-response confirmation) screen (SKOV3 CR cells [2]) | medium CI (combination index) (SKOV3 CR cells [3]) |
| --- | --- | --- | --- | --- |
| N.N.[Cl][Pt][Cl] [cisplatin] | increased in a cisplatin dose dependent manner | activated ROS production |  |  |
| Cc1cc(Nc2cc(CN3CCOCC3)c3nc(C)c(Cc4ccc(Cl)cc4F)n3n2)n[nH]1 [LY2784544] |  |  | significantly sensitize SKOV3 CR cells to cisplatin | 0.75 |
